Holding throughout (assay type): biochemical
Test [1] has as its target T1, E. coli DHPR enzyme (Escherichia coli, UniProt P04036). The experiment in a line: Dihydrodipicolinate reductase (DHPR) kinetic spectrophotometric assay, NADPH oxidation at 340 nm. Particulars: for IC50: bi-ligands and pyridine dicarboxylate derivatives, Example VII, FIG. 8. The procedure: DHPR was diluted in 10 mM HEPES, pH 7.4. Dihydrodipicolinate synthase (DHPS) was not diluted and was stored in eppendorf tubes.
The L-aspartate semialdehyde (L-ASA) solution was prepared in the following manner. A 180 μM stock solution of ASA was prepared. 100 μl of the ASA stock solution was mixed with 150 μl of concentrated NaHCO3 and 375 μl of H2O. […] The L-ASA stock solution was kept at a temperature of −20° C. After dilution, the pH of the 28.8 mM solution was checked and maintained between pH 1 to 2.
The solution for background detection was a 945 μl solution containing 0.1 M HEPES, pH 7.8, 1 mM pyruvate, 6 μM NADPH, 40 μM L-ASA, and 7 μl of 1 mg/ml DHPS at 25° C. in the volumes indicated above. The sample solution was then mixed and incubated for 10 minutes. Inhibitor solutions (500 nM or 100 μM final concentration) and enough dimethylsulfoxide (DMSO) to provide a final DMSO concentration of 5% were added. The solution was mixed and incubated for an additional 6 minutes.
In DHPR samples, the DHPR stock solution was diluted and 5 μl of diluted E. coli DHPR enzyme (1:1000 dilution of 1 mg/ml stock) were added. The sample was mixed for 20 seconds, and then the reaction was run for […]. […] Reading of the samples was continued until 300 seconds.
For assaying bi-ligands, the substrate concentration and the NADPH or NADH concentration were kept near their Km values. […] If substrate mimics (specificity ligands) were tested, the NADPH or NADH concentration was increased.

Another test deals with T2, LDH from Rabbit Muscle (Oryctolagus cuniculus, UniProt P13491).
T2 construct: 10 μl of diluted LDH from Rabbit Muscle; from tissue; host or cells: rabbit muscle
The experiment in a line: Lactate dehydrogenase (LDH) kinetic spectrophotometric assay, NADH oxidation. Particulars: Cibacron Blue at 10.3 mM; read-out: inhibition of LDH, positive control. The procedure: [table] […] These solutions were incubated for 6 minutes at 25° C. in 990 μl of a solution containing 0.1 M HEPES, pH 7.4, […], and 2.5 mM of pyruvate. The reaction was then initiated with 10 μl of diluted LDH from Rabbit Muscle (0.5 μg/ml; 1:2000 dilution of 1.0 mg/ml stock solution). […] Reading of the samples was continued until 300 seconds. […] When bi-ligands were screened, the substrate concentration and NADPH or NADH concentrations were kept near their Km values. […] If the compounds assayed were specificity ligands (substrate mimics), the NAPDH or NADH concentration was increased.

A further test deals with T3, ADH from Bakers Yeast (Saccharomyces cerevisiae, UniProt P00330).
T3 sequence (P00330 1-348): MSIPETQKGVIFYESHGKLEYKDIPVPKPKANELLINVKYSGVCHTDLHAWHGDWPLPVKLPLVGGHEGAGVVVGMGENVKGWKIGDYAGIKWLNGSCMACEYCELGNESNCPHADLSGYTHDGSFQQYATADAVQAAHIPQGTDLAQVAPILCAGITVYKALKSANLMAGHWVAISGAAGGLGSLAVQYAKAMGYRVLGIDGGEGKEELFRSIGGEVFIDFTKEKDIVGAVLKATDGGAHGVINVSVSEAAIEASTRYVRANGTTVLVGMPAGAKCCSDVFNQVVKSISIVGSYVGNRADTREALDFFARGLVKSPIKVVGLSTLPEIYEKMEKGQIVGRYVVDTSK
The experiment in a line: Alcohol dehydrogenase (ADH) kinetic spectrophotometric assay, NAD+ reduction. Particulars: Cibacron Blue at 15.5 μM; read-out: inhibition of ADH, positive control. On the procedure: Inhibitor solutions were prepared in DMSO so that, when diluted, the inhibitor concentration was 100 μM and the final DMSO concentration was adjusted to 5%. […] The reaction was then initiated with 10 μl of ADH from Bakers Yeast (Saccharomyces cerevisiae) (3.3 μg/ml; 1:400 dilution of 1.0 mg/ml). […] Reading of the samples was continued until 300 seconds.
Where only a simple read was desired, as in the case of NAD+ concentration determination, 13 μl (10 M stock) of ethanol was used to drive the reaction, and 10 μl of pure enzyme (1 mg/ml) was used. NAD+ was soluble at 2 mM. In this situation, the procedure was as follows. All of the ingredients except for the enzyme were mixed together. The solution was mixed well and the absorbance at 340 nm read. The enzyme was added and read again at OD 340 after the absorbance stopped changing, generally 10 to 15 minutes after the enzyme was added.

The next test concerns the target T4, human DHFR (Homo sapiens, UniProt P00374).
T4 sequence (P00374 1-187): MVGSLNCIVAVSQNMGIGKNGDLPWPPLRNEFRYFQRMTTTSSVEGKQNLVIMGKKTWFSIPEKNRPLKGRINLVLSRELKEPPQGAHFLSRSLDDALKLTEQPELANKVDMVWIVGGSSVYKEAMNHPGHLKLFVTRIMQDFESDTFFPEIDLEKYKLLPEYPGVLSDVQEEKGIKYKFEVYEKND
The experiment in a line: Dihydrofolate reductase (DHFR) kinetic spectrophotometric assay. Particulars: Cibacron Blue at 3 μM; read-out: inhibition of DHFR, positive control. On the procedure: H2 folate was dissolved in DMSO to about 10 mM and then diluted with water to a concentration of 0.1 mM.
Inhibitor solutions were prepared in DMSO so that, when diluted, the inhibitor concentration was 100 μM and the final DMSO concentration was adjusted to 5%. […] The reaction was then initiated with 8 μl of human DHFR (0.047 mg/ml; 1:85 dilution of 4 mg/ml stock solution). After the enzyme was added, the reaction was run for 10 minutes.
(§1) When bi-ligands were screened, the substrate concentration and NADPH or NADH concentrations were kept near their Km values. When assaying common ligands (CLMs), the substrate concentration was increased to at least 10 times the Km. If the compounds assayed were specificity ligands (substrate mimics), the NAPDH or NADH concentration was increased.

For test [2], the target named is DOXP reductoisomerase from E. coli (Escherichia coli, UniProt P45568). The experiment in a line: 1-Deoxy-D-xylulose-5-phosphate reductoisomerase (DOXPR) kinetic spectrophotometric assay, NADPH oxidation. The following applies: Cibacron Blue at 10.32 μM; read-out: inhibition of DOXPR, positive control. On the procedure:
DOXPR was diluted in 10 mM HEPES, pH 7.4.
Solutions of the inhibitors in DMSO were prepared to provide a final DMSO concentration of 5%. […] 1.15 mM DOXP, and 8 μM NADPH. The reaction was then initiated with 10 μl of DOXP reductoisomerase (also known as DOXP reductase) from E. coli (10 μg/ml; 1:200 diilution of 2 mg/ml stock solution).
as §1

The target in test [3] is T1, E. coli DHPR enzyme. The experiment in a line: Dihydrodipicolinate reductase (DHPR) kinetic spectrophotometric assay, NADPH oxidation at 340 nm. Particulars: read-out: inhibition of DHPR activity.

Several values for one entry are separate records, joined by “and”; a condition that tells them apart may be missing. Identical values can stand only once.

T1 sequence (P04036 whole entry): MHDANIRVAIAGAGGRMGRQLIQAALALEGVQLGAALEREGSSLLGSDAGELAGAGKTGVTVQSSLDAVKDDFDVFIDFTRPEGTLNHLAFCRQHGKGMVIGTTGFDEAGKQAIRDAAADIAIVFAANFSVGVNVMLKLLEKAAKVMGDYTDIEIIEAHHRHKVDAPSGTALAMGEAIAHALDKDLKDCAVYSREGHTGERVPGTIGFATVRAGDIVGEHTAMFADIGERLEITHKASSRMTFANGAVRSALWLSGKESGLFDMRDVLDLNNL
DOXP reductoisomerase from E. coli, sequence (P45568 whole entry): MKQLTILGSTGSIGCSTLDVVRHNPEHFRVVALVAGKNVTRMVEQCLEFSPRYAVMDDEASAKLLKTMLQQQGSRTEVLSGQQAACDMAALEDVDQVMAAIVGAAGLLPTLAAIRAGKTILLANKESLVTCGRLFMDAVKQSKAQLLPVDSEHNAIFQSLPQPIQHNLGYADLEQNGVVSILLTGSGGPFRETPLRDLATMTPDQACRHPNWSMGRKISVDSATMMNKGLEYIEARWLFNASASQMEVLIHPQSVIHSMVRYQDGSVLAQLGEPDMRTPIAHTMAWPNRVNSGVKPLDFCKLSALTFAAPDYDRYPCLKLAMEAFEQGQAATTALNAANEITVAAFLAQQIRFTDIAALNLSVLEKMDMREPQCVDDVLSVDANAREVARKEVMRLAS

In general, IC50 refers to the midpoint of a concentration-inhibition curve. Read a low IC50 as greater potency. Turning to `O=C(NCCSc1cc(C(=O)O)nc(C(=O)O)c1)c1ccc(-c2ccc(-c3nc4cc([N+](=O)[O-])ccc4[nH]3)o2)cc1` [compound 21a, 4-(2-{4-[5-(5-nitro-1H-benzoimidazol-2-yl)-furan-2-yl]-benzoylamino}-ethylsulfanyl)-pyridine-2,6-dicarboxylic acid], on E. coli DHPR enzyme [1], the IC50 was ~0.758 µM. In the case of `O=C1NC(=O)C(=Cc2ccc(-c3cccc(C(=O)NCCSc4cc(C(=O)O)nc(C(=O)O)c4)c3)o2)S1` [compound 12c, 4-(2-{3-[5-(2,4-dioxo-thiazolidin-5-ylidenemethyl)-furan-2-yl]-benzoylamino}-ethylsulfanyl)-pyridine-2,6-dicarboxylic acid], the IC50 against E. coli DHPR enzyme [1] is ~13 µM. Still for that read-out and setting: next, `O=C1NC(=O)C(=Cc2ccc(-c3ccc(C(=O)NCCSc4cc(C(=O)O)nc(C(=O)O)c4)cc3)o2)S1` [compound 12a, 4-(2-{4-[5-(2,4-dioxo-thiazolidin-5-ylidenemethyl)-furan-2-yl]-benzoylamino}-ethylsufanyl)-pyridine-2,6-dicarboxylic acid]: ~0.536 µM; `O=C1NC(=S)SC1=Cc1ccc(-c2cccc(C(=O)NCCSc3cc(C(=O)O)nc(C(=O)O)c3)c2)o1` [compound 12d, 4-(2-{3-[5-(4-oxo-2-thioxo-thiazolidin-5-ylidenemethyl)-furan-2-yl]-benzoylamino}-ethylsulfanyl)-pyridine-2,6-dicarboxylic acid]: ~0.254 µM; `O=C(NCCSc1cc(C(=O)O)nc(C(=O)O)c1)c1ccccc1` [compound 23, 4-(2-benzoylamino-ethylsulfanyl)-pyridine-2,6-dicarboxylic acid]: 78.3 µM. On the same count and under the same terms, next, `O=C1NC(=O)C(=Cc2ccc(-c3ccc(O)c(C(=O)NCCSc4cc(C(=O)O)nc(C(=O)O)c4)c3)o2)S1` [compound 12f, 4-(2-{5-[5-(2,4-dioxo-thiazolidin-5-ylidenemethyl)-furan-2-yl]-2-hydroxy-benzoylamino}-ethylsulfanyl)-pyridine-2,6-dicarboxylic acid]: ~4.91 µM.

By inhibition is commonly meant the share of the control response that was lost under treatment. On to `Nc1c(S(=O)(=O)O)cc(Nc2ccc(Nc3nc(Cl)nc(Nc4ccccc4S(=O)(=O)O)n3)c(S(=O)(=O)O)c2)c2c1C(=O)c1ccccc1C2=O` [Cibacron Blue], for which the inhibition at 2580 µM on E. coli DHPR enzyme [1] (read-out: inhibition of DHPR, positive control) lay within 70 to 80%. Besides, at LDH from Rabbit Muscle, the inhibition at 10300 µM fell in the range of 50 to 70%. The inhibition at 15.5 µM on ADH from Bakers Yeast is 50 to 60%. Further, the inhibition at 3 µM on human DHFR was in the range of 50 to 70%. Besides, the inhibition at 10.32 µM in test [2] was 70 to 80%. In the case of `N=C1NC(=O)C(=Cc2ccc(O)c(C(=O)NCCSc3cc(C(=O)O)nc(C(=O)O)c3)c2)S1` [compound 16a, 4-{2-[2-hydroxy-5-(2-imino-4-oxo-thiazolidin-5-ylidenemethyl)-benzoylamino]-ethylsulfanyl}-pyridine-2,6-dicarboxylic acid], the IC50 against E. coli DHPR enzyme [1] is ~8.2 µM and ~15.5 µM. As for `CC(=O)NCCSc1cc(C(=O)O)nc(C(=O)O)c1` [compound 22, 4-(2-acetylamino-ethylsulfanyl)-pyridine-2,6-dicarboxylic acid], the inhibition at 800 µM on E. coli DHPR enzyme [3] was ~31%. For the compound `N=C1NC(=O)C(=Cc2ccc(C(=O)NCCSc3cc(C(=O)O)nc(C(=O)O)c3)cc2)S1` [compound 16c, 4-{2-[4-(2-imino-4-oxo-thiazolidin-5-ylidenemethyl)-benzoylamino]-ethylsulfanyl}-pyridine-2,6-dicarboxylic acid], the IC50 on E. coli DHPR enzyme [1] is ~33 µM.

For `O=C1NC(=S)SC1=Cc1ccc(-c2ccc(C(=O)NCCSc3cc(C(=O)O)nc(C(=O)O)c3)cc2)o1` [compound 12b, 4-(2-{4-[5-(4-oxo-2-thioxo-thiazolidin-5-ylidenemethyl)-furan-2-yl]-benzoylamino}-ethylsulfanyl)-pyridine-2,6-dicarboxylic acid], the IC50 against E. coli DHPR enzyme [1] is ~7.1 µM. On to `N=C1NC(=O)C(=Cc2cccc(C(=O)NCCSc3cc(C(=O)O)nc(C(=O)O)c3)c2)S1` [compound 16b, 4-{2-[3-(2-imino-4-oxo-thiazolidin-5-ylidenemethyl)-benzoylamino]-ethylsulfanyl}-pyridine-2,6-dicarboxylic acid], for which, at E. coli DHPR enzyme [1], the IC50 is ~1.02 µM. Still for that read-out and setting: next, `O=C(O)c1cc(SCCNC(=O)c2cc3cccc(O)c3cc2O)cc(C(=O)O)n1` [compound 24, 4-{2-[(3,5-dihydroxy-naphthalene-2-carbonyl)-amino]-ethylsulfanyl}-pyridine-2,6-dicarboxylic acid]: 2 µM.

The values are drawn from US20030180797A1, “Identification of ligands for a receptor family and related methods” (priority 2002, published 2003).
